This note sets out measurements from patent US7799809B2, “Carboxamide compounds and their use as calpain inhibitors” (Abbott GmbH & Co. KG, priority 2006, dated 2010).

What all share (type): biochemical
The target of one test is T1, cathepsin B (Homo sapiens, UniProt P07858).
T1 construct: cathepsin B—isolated from human liver (Calbiochem #219362); purchased Calbiochem 219362; host or cells: human liver (tissue-derived)
In words: Cathepsin B enzyme inhibition in vitro (kinetic fluorescence assay). Particulars: cathepsin B isolated from human liver vs calpain I. Put shortly:
(§1)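 Inhibition is measured at room temperature in cysteine-containing MES buffer, pH 6.0, by continuous fluorescence at 460 nm. Cathepsin S (0.5 nM) uses 20 μM Z-Val-Val-Arg-AMC; L (1 nM) and B (0.25 nM) use Z-Phe-Arg-AMC at 2 and 100 μM respectively.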

In the next test the target is T2, cathepsin S (Homo sapiens, UniProt P25774).
T2 construct: purchased Calbiochem 219343; host or cells: E. coli
T2 sequence (P25774 115-331): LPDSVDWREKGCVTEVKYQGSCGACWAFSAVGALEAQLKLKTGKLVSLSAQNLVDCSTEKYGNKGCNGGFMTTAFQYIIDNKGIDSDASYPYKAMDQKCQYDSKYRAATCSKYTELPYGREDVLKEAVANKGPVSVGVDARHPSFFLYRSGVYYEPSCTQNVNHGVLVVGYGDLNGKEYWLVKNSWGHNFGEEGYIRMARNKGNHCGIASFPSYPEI
Nature of the test: Cathepsin S enzyme inhibition in vitro (kinetic fluorescence assay). Particulars: recombinant human cathepsin S vs calpain I. In outline: as §1

For a further test, the target named is T3, cathepsin K (Homo sapiens, UniProt P43235).
T3 construct: purchased Calbiochem 342001; host or cells: E. coli
T3 sequence (P43235 115-329): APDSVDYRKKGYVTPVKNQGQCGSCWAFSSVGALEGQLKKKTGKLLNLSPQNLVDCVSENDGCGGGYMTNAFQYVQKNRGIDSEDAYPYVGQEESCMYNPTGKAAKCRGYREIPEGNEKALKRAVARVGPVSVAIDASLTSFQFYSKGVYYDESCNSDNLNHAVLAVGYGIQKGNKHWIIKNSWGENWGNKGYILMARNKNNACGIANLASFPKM
Nature of the test: Cathepsin K enzyme inhibition in vitro (kinetic fluorescence assay). Particulars: cathepsin K activated from recombinant human procathepsin K vs calpain I.

The target in the next test is T4, cathepsin L (Homo sapiens, UniProt P07711).
T4 construct: cathepsin L—isolated from human liver (Calbiochem #219402); purchased Calbiochem 219402; host or cells: human liver (tissue-derived)
T4 sequence (P07711 114-333): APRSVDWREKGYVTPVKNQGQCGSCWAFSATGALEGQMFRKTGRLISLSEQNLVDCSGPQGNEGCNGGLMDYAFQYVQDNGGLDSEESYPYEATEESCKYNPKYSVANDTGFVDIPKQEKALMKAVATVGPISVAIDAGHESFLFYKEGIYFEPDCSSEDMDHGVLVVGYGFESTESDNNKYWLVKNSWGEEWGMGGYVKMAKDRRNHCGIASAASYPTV
Nature of the test: Cathepsin L enzyme inhibition in vitro (kinetic fluorescence assay). Particulars: cathepsin L isolated from human liver vs calpain I. In outline:
as §1

As for `COc1ccc(-c2ccn(-c3ncccc3C(=O)NC(Cc3ccccc3)C(=O)C(N)=O)n2)cc1` (stereo not shown) [Example 48, N-(3-Amino-1-benzyl-2,3-dioxopropyl)-2-[3-(4-methoxyphenyl)-1H-pyrazol-1-yl]nicotinamide], at cathepsin B, the “Sel cat. B: Ki(cathepsin B)/Ki(calpain) ratio” value is “+ (+ means 10≦Ki(cathepsin B)/Ki(calpain)<30)”. Moreover, the “Sel cat. S: Ki(cathepsin S)/Ki(calpain) ratio” value on cathepsin S was “++ (++ means a Ki(cathepsin S)/Ki(calpain) ratio of ≧100)”. On cathepsin K, the “Sel cat. K: Ki(cathepsin K)/Ki(calpain) ratio” value is reported as “+ (+ means 10≦Ki(cathepsin K)/Ki(calpain)<30)”. In addition, on cathepsin L, the “Sel cat. L: Ki(cathepsin L)/Ki(calpain) ratio” value is “++ (++ means a Ki(cathepsin L)/Ki(calpain) ratio of ≧50)”.

Take `NC(=O)C(=O)C(Cc1ccccc1)NC(=O)c1cccnc1-n1ccc(-c2cccc(OC(F)(F)F)c2)n1` (stereo not shown) [Example 168, N-[3-Amino-2,3-dioxo-1-(phenylmethyl)propyl]-2-(3-{3-[(trifluoromethyl)oxy]phenyl}-1H-pyrazol-1-yl)pyridine-3-carboxamide]: the “Sel cat. B: Ki(cathepsin B)/Ki(calpain) ratio” value on cathepsin B is reported as “+ (+ means 10≦Ki(cathepsin B)/Ki(calpain)<30)”. The “Sel cat. S: Ki(cathepsin S)/Ki(calpain) ratio” value at cathepsin S is “++ (++ means a Ki(cathepsin S)/Ki(calpain) ratio of ≧100)”. Besides, at cathepsin K, the “Sel cat. K: Ki(cathepsin K)/Ki(calpain) ratio” value is reported as “+ (+ means 10≦Ki(cathepsin K)/Ki(calpain)<30)”. In addition, the “Sel cat. L: Ki(cathepsin L)/Ki(calpain) ratio” value on cathepsin L was “++ (++ means a Ki(cathepsin L)/Ki(calpain) ratio of ≧50)”.

Turning to `NC(=O)C(=O)C(Cc1ccccc1)NC(=O)c1cccnc1-n1cc2c(n1)-c1ccccc1SC2` (stereo not shown) [Example 173, N-[3-Amino-2,3-dioxo-1-(phenylmethyl)propyl]-2-thiochromeno[4,3-c]pyrazol-2(4H)-ylpyridine-3-carboxamide], on cathepsin B, the “Sel cat. B: Ki(cathepsin B)/Ki(calpain) ratio” value was “+ (+ means 10≦Ki(cathepsin B)/Ki(calpain)<30)”. Further, the “Sel cat. S: Ki(cathepsin S)/Ki(calpain) ratio” value on cathepsin S was “++ (++ means a Ki(cathepsin S)/Ki(calpain) ratio of ≧100)”. Also, the “Sel cat. K: Ki(cathepsin K)/Ki(calpain) ratio” value on cathepsin K was “+ (+ means 10≦Ki(cathepsin K)/Ki(calpain)<30)”. The “Sel cat. L: Ki(cathepsin L)/Ki(calpain) ratio” value at cathepsin L is reported as “++ (++ means a Ki(cathepsin L)/Ki(calpain) ratio of ≧50)”.

Turning to `NC(=O)C(=O)C(Cc1ccccc1)NC(=O)c1cccnc1-n1cc(Cl)c(-c2ccc(F)cc2)n1` (stereo not shown) [Example 184, N-[3-Amino-2,3-dioxo-1-(phenylmethyl)propyl]-2-[4-chloro-3-(4-fluorophenyl)-1H-pyrazol-1-yl]pyridine-3-carboxamide], the “Sel cat. B: Ki(cathepsin B)/Ki(calpain) ratio” value at cathepsin B is on record as “+ (+ means 10≦Ki(cathepsin B)/Ki(calpain)<30)”. The “Sel cat. S: Ki(cathepsin S)/Ki(calpain) ratio” value on cathepsin S is given as “++ (++ means a Ki(cathepsin S)/Ki(calpain) ratio of ≧100)”. Besides, the “Sel cat. K: Ki(cathepsin K)/Ki(calpain) ratio” value at cathepsin K is listed as “+ (+ means 10≦Ki(cathepsin K)/Ki(calpain)<30)”. The “Sel cat. L: Ki(cathepsin L)/Ki(calpain) ratio” value on cathepsin L is “++ (++ means a Ki(cathepsin L)/Ki(calpain) ratio of ≧50)”.

With `NC(=O)C(=O)C(Cc1ccccc1)NC(=O)c1cccnc1-n1ccc(-c2cccc(C(F)(F)F)c2)n1` (stereo not shown) [Example 83, N-(3-Amino-1-benzyl-2,3-dioxopropyl)-2-{3-[3-(trifluoromethyl)phenyl]-1H-pyrazol-1-yl}nicotinamide], the “Sel cat. B: Ki(cathepsin B)/Ki(calpain) ratio” value on cathepsin B was “+ (+ means 10≦Ki(cathepsin B)/Ki(calpain)<30)”. The “Sel cat. S: Ki(cathepsin S)/Ki(calpain) ratio” value on cathepsin S is “++ (++ means a Ki(cathepsin S)/Ki(calpain) ratio of ≧100)”. Moreover, the “Sel cat. K: Ki(cathepsin K)/Ki(calpain) ratio” value at cathepsin K is “++ (++ means a Ki(cathepsin K)/Ki(calpain) ratio of ≧30)”. For the same compound, the “Sel cat. L: Ki(cathepsin L)/Ki(calpain) ratio” value on cathepsin L was “++ (++ means a Ki(cathepsin L)/Ki(calpain) ratio of ≧50)”.

Regarding `CC(C)c1ccc(-c2ccn(-c3ncccc3C(=O)NC(Cc3ccccc3)C(=O)C(N)=O)n2)cc1` (stereo not shown) [Example 87, N-[3-Amino-2,3-dioxo-1-(phenylmethyl)propyl]-2-{3-[4-(1-methylethyl)phenyl]-1H-pyrazol-1-yl}pyridine-3-carboxamide], the “Sel cat. B: Ki(cathepsin B)/Ki(calpain) ratio” value on cathepsin B is “++ (++ means a Ki(cathepsin B)/Ki(calpain) ratio of ≧30)”. In addition, the “Sel cat. S: Ki(cathepsin S)/Ki(calpain) ratio” value on cathepsin S is “++ (++ means a Ki(cathepsin S)/Ki(calpain) ratio of ≧100)”. Also, on cathepsin K, the “Sel cat. K: Ki(cathepsin K)/Ki(calpain) ratio” value is reported as “++ (++ means a Ki(cathepsin K)/Ki(calpain) ratio of ≧30)”. The “Sel cat. L: Ki(cathepsin L)/Ki(calpain) ratio” value at cathepsin L is listed as “++ (++ means a Ki(cathepsin L)/Ki(calpain) ratio of ≧50)”.

On to `NC(=O)C(=O)[C@H](Cc1ccccc1)NC(=O)c1cccnc1-n1ccc(-c2ccccc2)n1` [Example 107, N-[(1S)-3-Amino-2,3-dioxo-1-(phenylmethyl)propyl]-2-(3-phenyl-1H-pyrazol-1-yl)pyridine-3-carboxamide], for which the “Sel cat. B: Ki(cathepsin B)/Ki(calpain) ratio” value at cathepsin B is reported as “+ (+ means 10≦Ki(cathepsin B)/Ki(calpain)<30)”. The “Sel cat. S: Ki(cathepsin S)/Ki(calpain) ratio” value at cathepsin S is listed as “++ (++ means a Ki(cathepsin S)/Ki(calpain) ratio of ≧100)”. Also, the “Sel cat. K: Ki(cathepsin K)/Ki(calpain) ratio” value on cathepsin K was “+ (+ means 10≦Ki(cathepsin K)/Ki(calpain)<30)”. Besides, the “Sel cat. L: Ki(cathepsin L)/Ki(calpain) ratio” value on cathepsin L is recorded as “++ (++ means a Ki(cathepsin L)/Ki(calpain) ratio of ≧50)”.
